Assay results from patent publication US20220168198A1, “AN ANTIMICROBIAL MIXTURE” (SYMRISE AG, priority 2019, published 2022).

Experiments:
S. epidermitis = assay: MIC determination (agar dilution or broth microdilution), activity against S. epidermitis; format: cell-based; design: unit not given beside the values; settings: Comparison: MIC values for the actives taken alone
Protocol: (§1) Synergistic activity of mixtures of 4-Isopropyl-3-methylphenol an alpha bisabolol with regard to S. aureus and S. epidermidis was determined. […]
(§2) Antimicrobial activity was evaluated by determining the Minimum Inhibitory Concentration (MIC) representing the lowest concentration of a chemical which prevents visible growth of a bacterium.
(§3) The MIC values were determined by preparing solutions of the chemical in vitro at increasing concentrations, incubating the solutions with the separate batches of cultured bacteria, and measuring the results using agar dilution or broth microdilution. Results have been graded into susceptible (often called sensitive), intermediate, or resistant to a particular antibiotic by using a cutoff point. Cut off points are agreed upon values, published in guidelines of a reference body, such as the U.S. Clinical and Laboratory Standards Institute (CLSI), the British Society for Antimicrobial Chemotherapy (BSAC) or the European Committee on Antimicrobial Susceptibility Testing (EUCAST).

S. aureus = assay: MIC determination (agar dilution or broth microdilution), activity against S. aureus; format: cell-based; design: unit not given beside the values; settings: Comparison: MIC values for the actives taken alone
Protocol: as §1, §2, §3

[1] = tested on: mold growth on moist alfalfa hay; settings: moist alfalfa hay preservation, Agronomy Journal 47, 64-69, 1955; cited from earlier work

| MIC (S. epidermitis) | MIC (S. aureus) | SMILES | prevention of mold growth [1] |
| --- | --- | --- | --- |
| 250 | 250 | Cc1cc(O)ccc1C(C)C [4-Isopropyl-3-methylphenol] |  |
|  |  | CC(=O)c1ccc(O)cc1 [4-hydroxyacetophenone] | not prevent mold growth |
| 125 | 125 | CC(C)=CCC[C@](C)(O)[C@@H]1CC=C(C)CC1 [alpha-Bisabolol] |  |
